What was measured:
Assay type in all cases: cell-based
E. coli DH5α = test: Antibacterial activity: MIC and growth curve against E. coli DH5α in 96-well plate; conditions: minimal inhibitory concentration against E. coli DH5α; 96-well plate, 5×10^5 CFU/mL, 37° C., judged after 8 h
How it was run: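 Log-phase DH5α (OD600 about 0.5, 37° C, 185 rpm in LB) was pelleted, resuspended in fresh LB and seeded at 5×10^5 CFU/mL with recombinant protein at 50, 25 and 12.5 μg/mL (two-fold series), in triplicate. Plates were shaken at 175 rpm, 37° C, and OD600 was read every 30 min. MIC was the lowest concentration with no growth.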

E. coli BL21 = test: MIC against Gram-negative bacteria: E. coli BL21
How it was run: (§1)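 MIC = lowest concentration of recombinant protein showing no growth. Test proteins: purified human-derived EGF domain proteins, two-fold dilution series, three wells per concentration; inoculum 5×10^5 CFU/mL in LB; incubation 37° C with shaking at 175 rpm.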

Pseudomonas aeruginosa = test: MIC against Gram-negative bacteria: Pseudomonas aeruginosa; conditions: for MIC: P. aeruginosa
How it was run: as §1

Klebsiella pneumonia = test: MIC against Gram-negative bacteria: Klebsiella pneumonia; conditions: for MIC: K. pneumonia
How it was run: as §1

Enterobacter cloacae = test: MIC against Gram-negative bacteria: Enterobacter cloacae; conditions: for MIC: E. cloacae
How it was run: as §1

Aeromonas hydrophila = test: MIC against Gram-negative bacteria: Aeromonas hydrophila; conditions: for MIC: A. hydrophila
How it was run: as §1

Citrobacter diversus = test: MIC against Gram-negative bacteria: Citrobacter diversus; conditions: for MIC: C. diversus
How it was run: as §1

Moraxella catarrhalis = test: MIC against Gram-negative bacteria: Moraxella catarrhalis; conditions: for MIC: M. catarrhalis
How it was run: as §1

Proteus mirabilis = test: MIC against Gram-negative bacteria: Proteus mirabilis; conditions: for MIC: P. mirabilis
How it was run: as §1

Proteus vulgaris = test: MIC against Gram-negative bacteria: Proteus vulgaris; conditions: for MIC: P. vulgaris
How it was run: as §1

Serratia marcescens = test: MIC against Gram-negative bacteria: Serratia marcescens; conditions: for MIC: S. marcescens
How it was run: as §1

[1] = 96-well plate, 5×10^5 CFU/mL, 37° C., 10 h
[2] = E. coli BL21, 10 h cultivation at 37° C.
[3] = 10 h cultivation at 37° C., 5×10^5 CFU/mL, two-fold serial dilution

For “PRT544 (CDCGARLCDELTGQCICPPRTIPPDCLLCQPQTFGCHPLVGCEE; listed as Homo sapiens)”, the MIC (E. coli DH5α) was 12.5 µg/mL, the “MIC against E. coli BL21” value (E. coli BL21; [1]) was 25 µg/mL and the “MIC against P. aeruginosa” value (Pseudomonas aeruginosa; [1]) was 12.5 µg/mL. For the same substance, the “MIC against K. pneumonia” value (Klebsiella pneumonia; [1]) was 25 µg/mL, the “MIC against E. cloacae” value (Enterobacter cloacae; [1]) was 12.5 µg/mL and the “MIC against A. hydrophila” value (Aeromonas hydrophila; [1]) was 12.5 µg/mL. The “MIC against C. diversus” value (Citrobacter diversus; [1]) was 12.5 µg/mL, the “MIC against M. catarrhalis” value (Moraxella catarrhalis; [1]) was 12.5 µg/mL and the “MIC against P. mirabilis” value (Proteus mirabilis; [1]) was 12.5 µg/mL. For the same substance, the “MIC against P. vulgaris” value (Proteus vulgaris; [1]) was 12.5 µg/mL and the “MIC against S. marcescens” value (Serratia marcescens; [1]) was 12.5 µg/mL.

“PRT504 (CDCSGNVDPSEAGHCDSVTGECLKCLGNTDGAHCERCADGFYGDAVTAKNCRA; listed as Homo sapiens)” was tested, and the MIC (E. coli DH5α) was 12.5 µg/mL, the “MIC against E. coli BL21” value (E. coli BL21; [1]) was 50 µg/mL and the “MIC against P. aeruginosa” value (Pseudomonas aeruginosa; [1]) was 12.5 µg/mL. The “MIC against K. pneumonia” value (Klebsiella pneumonia; [1]) was 50 µg/mL, the “MIC against E. cloacae” value (Enterobacter cloacae; [1]) was 12.5 µg/mL and the “MIC against A. hydrophila” value (Aeromonas hydrophila; [1]) was 25 µg/mL. The “MIC against C. diversus” value (Citrobacter diversus; [1]) was 50 µg/mL, the “MIC against M. catarrhalis” value (Moraxella catarrhalis; [1]) was 25 µg/mL and the “MIC against P. mirabilis” value (Proteus mirabilis; [1]) was 12.5 µg/mL. The “MIC against P. vulgaris” value (Proteus vulgaris; [1]) was 50 µg/mL and the “MIC against S. marcescens” value (Serratia marcescens; [1]) was 12.5 µg/mL.

With “PRT121 (CGPCFNNGVPILEGTSCRCQCRLGSLGAACE; listed as Homo sapiens)” the MIC (E. coli DH5α) was 25 µg/mL, the “MIC (μg/mL) E. coli BL21” value (E. coli BL21; E. coli BL21, 96-well plate, 5×10^5 CFU/mL, 37° C., 10 h) was 12.5 µg/mL and the “MIC (μg/mL) P. aeruginosa” value (Pseudomonas aeruginosa; Pseudomonas aeruginosa, 96-well plate, 5×10^5 CFU/mL, 37° C., 10 h) was 25 µg/mL. The “MIC (μg/mL) K. pneumonia” value (Klebsiella pneumonia; Klebsiella pneumonia, 96-well plate, 5×10^5 CFU/mL, 37° C., 10 h) was 12.5 µg/mL, the “MIC (μg/mL) E. cloacae” value (Enterobacter cloacae; Enterobacter cloacae, 96-well plate, 5×10^5 CFU/mL, 37° C., 10 h) was 50 µg/mL and the “MIC (μg/mL) A. hydrophila” value (Aeromonas hydrophila; Aeromonas hydrophila, 96-well plate, 5×10^5 CFU/mL, 37° C., 10 h) was 12.5 µg/mL. For the same substance, the “MIC (μg/mL) C. diversus” value (Citrobacter diversus; Citrobacter diversus, 96-well plate, 5×10^5 CFU/mL, 37° C., 10 h) was 50 µg/mL, the “MIC (μg/mL) M. catarrhalis” value (Moraxella catarrhalis; Moraxella catarrhalis, 96-well plate, 5×10^5 CFU/mL, 37° C., 10 h) was 12.5 µg/mL and the “MIC (μg/mL) P. mirabilis” value (Proteus mirabilis; Proteus mirabilis, 96-well plate, 5×10^5 CFU/mL, 37° C., 10 h) was 25 µg/mL. The “MIC (μg/mL) P. vulgaris” value (Proteus vulgaris; Proteus vulgaris, 96-well plate, 5×10^5 CFU/mL, 37° C., 10 h) was 50 µg/mL and the “MIC (μg/mL) S. marcescens” value (Serratia marcescens; Serratia marcescens, 96-well plate, 5×10^5 CFU/mL, 37° C., 10 h) was 25 µg/mL.

“PRT1027 (PGNPCYDGSHMCDTTARCHPGTGVDYTCECASGYQGDGRNCV; listed as Homo sapiens)” gave an MIC (E. coli DH5α) of 12.5 µg/mL, an MIC (E. coli BL21; [2]) of 25 µg/mL and an MIC (Pseudomonas aeruginosa; 10 h cultivation at 37° C.) of 12.5 µg/mL. The MIC (Klebsiella pneumonia; 10 h cultivation at 37° C.) was 25 µg/mL, the MIC (Enterobacter cloacae; 10 h cultivation at 37° C.) was 50 µg/mL and the MIC (Aeromonas hydrophila; 10 h cultivation at 37° C.) was 12.5 µg/mL. For the same substance, the MIC (Citrobacter diversus; 10 h cultivation at 37° C.) was 50 µg/mL, the MIC (Moraxella catarrhalis; 10 h cultivation at 37° C.) was 12.5 µg/mL and the MIC (Proteus mirabilis; 10 h cultivation at 37° C.) was 50 µg/mL. It also gave an MIC (Proteus vulgaris; 10 h cultivation at 37° C.) of 12.5 µg/mL and an MIC (Serratia marcescens; 10 h cultivation at 37° C.) of 50 µg/mL.

With “PRT1055 (GADPCLYQNGGCEHICKKRLGTAWCSCREGFMKASDGKTCL; listed as Homo sapiens)” the MIC (E. coli DH5α) was 12.5 µg/mL, the “MIC E. coli BL21” value (E. coli BL21; [3]) was 50 µg/mL and the “MIC P. aeruginosa” value (Pseudomonas aeruginosa; [3]) was 12.5 µg/mL. The “MIC K. pneumonia” value (Klebsiella pneumonia; [3]) was 50 µg/mL, the “MIC E. cloacae” value (Enterobacter cloacae; [3]) was 12.5 µg/mL and the “MIC A. hydrophila” value (Aeromonas hydrophila; [3]) was 50 µg/mL. The “MIC C. diversus” value (Citrobacter diversus; [3]) was 25 µg/mL, the “MIC M. catarrhalis” value (Moraxella catarrhalis; [3]) was 12.5 µg/mL and the “MIC P. mirabilis” value (Proteus mirabilis; [3]) was 25 µg/mL. The “MIC P. vulgaris” value (Proteus vulgaris; [3]) was 50 µg/mL and the “MIC S. marcescens” value (Serratia marcescens; [3]) was 12.5 µg/mL.

Work on “PRT938 (DIDDCLANPCQNGGSCMDGVNTFSCLCLPGFTGDKCQ; listed as Homo sapiens)” yielded an MIC (E. coli DH5α) of 12.5 µg/mL, an MIC (E. coli BL21; [2]) of 50 µg/mL and an MIC (Pseudomonas aeruginosa; 10 h cultivation at 37° C.) of 25 µg/mL. The MIC (Klebsiella pneumonia; 10 h cultivation at 37° C.) was 12.5 µg/mL, the MIC (Enterobacter cloacae; 10 h cultivation at 37° C.) was 25 µg/mL and the MIC (Aeromonas hydrophila; 10 h cultivation at 37° C.) was 50 µg/mL. The MIC (Citrobacter diversus; 10 h cultivation at 37° C.) was 12.5 µg/mL, the MIC (Moraxella catarrhalis; 10 h cultivation at 37° C.) was 50 µg/mL and the MIC (Proteus mirabilis; 10 h cultivation at 37° C.) was 12.5 µg/mL. It also gave an MIC (Proteus vulgaris; 10 h cultivation at 37° C.) of 50 µg/mL and an MIC (Serratia marcescens; 10 h cultivation at 37° C.) of 12.5 µg/mL.

Substance “PRT925 (DINECHSDPCQNDATCLDKIGGFTCLCMPGFKGVHCE; listed as Homo sapiens)” has an MIC (E. coli DH5α) of 12.5 µg/mL, an MIC (E. coli BL21; [2]) of 25 µg/mL and an MIC (Pseudomonas aeruginosa; 10 h cultivation at 37° C.) of 50 µg/mL. It also gave an MIC (Klebsiella pneumonia; 10 h cultivation at 37° C.) of 12.5 µg/mL, an MIC (Enterobacter cloacae; 10 h cultivation at 37° C.) of 25 µg/mL and an MIC (Aeromonas hydrophila; 10 h cultivation at 37° C.) of 50 µg/mL. The MIC (Citrobacter diversus; 10 h cultivation at 37° C.) was 25 µg/mL, the MIC (Moraxella catarrhalis; 10 h cultivation at 37° C.) was 12.5 µg/mL and the MIC (Proteus mirabilis; 10 h cultivation at 37° C.) was 25 µg/mL. The MIC (Proteus vulgaris; 10 h cultivation at 37° C.) was 50 µg/mL and the MIC (Serratia marcescens; 10 h cultivation at 37° C.) was 12.5 µg/mL.

Reference: patent US9833497B2, “Human originated EGF domain proteins and use of the same” (CHENGDU SOURCEBIO LIMITED-LIABILITY COMPANY, priority 2013, dated 2017)
